17 compounds from patent publication US11458123B2 (Arvinas, Inc., priority 2016, dated 2022) can be followed below.

One experiment has as its system tau protein. In words: Tau protein in vitro degradation assay (Western blot, Tau-13 antibody). The experiment is classed as cell-based, human. The following applies: SK-N-SH cells; 72 hours of incubation; tested at 300 nM, 100 nM, 33 nM and 11 nM; Western blot, Tau-13 antibody. An outline of the steps:
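Tau degradation read by Tau-13 Western blot (detects all human tau forms) of SDS-PAGE-resolved lysates from SK-N-SH cells. Cells were plated at least 18 h before 72 h exposure to PROTACs at either 1000/300/100 nM or 300/100/33/11 nM.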
Background: A western blot detects proteins with antibodies after separation by electrophoresis.
In the case of `Cn1c2ccncc2c2ccc(-c3ccc(O[C@H]4C[C@H](OC5CCN(c6cccc(CCCOc7ccc8c(c7)C(=O)N(C7CCC(=O)NC7=O)C8=O)c6)CC5)C4)nc3)cc21` (some centres unmarked) [Compound 205, 2-(2,6-dioxopiperidin-3-yl)-5-(3-(3-(4-((1r,3r)-3-((5-(5-methyl-5H-pyrido[4,3-b]indol-7-yl)pyridin-2-yl)oxy)cyclobutoxy)piperidin-1-yl)phenyl)propoxy)isoindoline-1,3-dione], the “Degradation activity (tau protein remaining; highest amount of degradation observed at any dosage)” value is given as “A (≤50% tau protein remaining after 72 hours of incubation with the test compound)”.

Regarding `Cn1c2ccncc2c2ccc(-c3ccc(OCC#CCOCCCCOCCCCOc4ccc5c(c4)C(=O)N(C4CCC(=O)NC4=O)C5=O)nc3)cc21` (centres unmarked) [Compound 90, 2-(2,6-dioxopiperidin-3-yl)-5-(4-(4-((4-((5-(5-methyl-5H-pyrido[4,3-b]indol-7-yl)pyridin-2-yl)oxy)but-2-yn-1-yl)oxy)butoxy)butoxy)isoindoline-1,3-dione], the “Degradation activity* (highest amount of degradation observed at any dosage; tau protein remaining)” value is reported as “A (≤50% tau protein remaining after 72 hours of incubation with the test compound)”.

Consider `Cn1c2ccncc2c2ccc(-c3ccc(O[C@H]4C[C@H](Oc5ccc(C#CCCCCOc6ccc7c(c6)C(=O)N(C6CCC(=O)NC6=O)C7=O)cn5)C4)nc3)cc21` (some centres unmarked) [Compound 102, 2-(2,6-dioxopiperidin-3-yl)-5-((6-(6-((1r,3r)-3-((5-(5-methyl-5H-pyrido[4,3-b]indol-7-yl)pyridin-2-yl)oxy)cyclobutoxy)pyridin-3-yl)hex-5-yn-1-yl)oxy)isoindoline-1,3-dione], for which the “Degradation activity* (highest amount of degradation observed at any dosage; tau protein remaining)” value was “C (>80% tau protein remaining after 72 hours of incubation with the test compound)”.

With `O=C1CCC(N2C(=O)c3cnc(OCCOCCOCCOCCOCCOc4ccc(-c5ccc6c(c5)[nH]c5ccncc56)cn4)cc3C2=O)C(=O)N1` (centres unmarked) [Compound 87, 6-((14-((5-(5H-pyrido[4,3-b]indol-7-yl)pyridin-2-yl)oxy)-3,6,9,12-tetraoxatetradecyl)oxy)-2-(2,6-dioxopiperidin-3-yl)-1H-pyrrolo[3,4-c]pyridine-1,3 (2H)-dione], the “Degradation activity* (highest amount of degradation observed at any dosage; tau protein remaining)” value was “C (>80% tau protein remaining after 72 hours of incubation with the test compound)”.

With `O=C1CCC(N2C(=O)c3ccc(OCCCCCOCCN4CCN(CCCc5ccc(-c6ccc7c(c6)[nH]c6ccncc67)cn5)CC4)cc3C2=O)C(=O)N1` (centres unmarked) [Compound 58, 5-((5-(2-(4-(3-(5-(5H-pyrido[4,3-b]indol-7-yl)pyridin-2-yl)propyl)piperazin-1-yl)ethoxy)pentyl)oxy)-2-(2,6-dioxopiperidin-3-yl)isoindoline-1,3-dione], the “Degradation activity* (highest amount of degradation observed at any dosage; tau protein remaining)” value is “C (>80% tau protein remaining after 72 hours of incubation with the test compound)”.

`Cn1c2ccncc2c2ccc(-c3cnc(O[C@H]4C[C@H](OCCCOCCCOC5CN(c6ccc7c(c6)C(=O)N(C6CCC(=O)NC6=O)C7=O)C5)C4)c(C(F)(F)F)c3)cc21` (some centres unmarked) [Compound 125, 2-(2,6-dioxopiperidin-3-yl)-5-(3-(3-(3-((1r,3r)-3-((5-(5-methyl-5H-pyrido[4,3-b]indol-7-yl)-3-(trifluoromethyl)pyridin-2-yl)oxy)cyclobutoxy)propoxy)propoxy)azetidin-1-yl)isoindoline-1,3-dione]: the “Degradation activity* (highest amount of degradation observed at any dosage; tau protein remaining)” value was “C (>80% tau protein remaining after 72 hours of incubation with the test compound)”.

`CN(CCCO[C@H]1C[C@H](Oc2ccc(-c3ccc4c5cnccc5n(C)c4c3)cn2)C1)C(=O)COCC1CN(c2ccc3c(c2)C(=O)N(C2CCC(=O)NC2=O)C3=O)C1` (some centres unmarked) [Compound 202, 2-((1-(2-(2,6-dioxopiperidin-3-yl)-1,3-dioxoisoindolin-5-yl)azetidin-3-yl)methoxy)-N-methyl-N-(3-((1r,3r)-3-((5-(5-methyl-5H-pyrido[4,3-b]indol-7-yl)pyridin-2-yl)oxy)cyclobutoxy)propyl)acetamide]: the “Degradation activity (tau protein remaining; highest amount of degradation observed at any dosage)” value is “B (≤80% and >50% tau protein remaining after 72 hours of incubation with the test compound)”.

Consider `O=C1CCC(N2C(=O)c3ccc(OCCCCCN4CCN(CCO[C@H]5C[C@@H](Oc6ccc(-c7ccc8c(c7)[nH]c7ccncc78)cn6)C5)CC4)cc3C2=O)C(=O)N1` (some centres unmarked) [Compound 56, 5-((5-(4-(2-((1 s,3 s)-3-((5-(5H-pyrido[4,3-b]indol-7-yl)pyridin-2-yl)oxy)cyclobutoxy)ethyl)piperazin-1-yl)pentyl)oxy)-2-(2,6-dioxopiperidin-3-yl)isoindoline-1,3-dione], for which the “Degradation activity* (highest amount of degradation observed at any dosage; tau protein remaining)” value is “C (>80% tau protein remaining after 72 hours of incubation with the test compound)”.

`Cn1c2ccncc2c2ccc(-c3ccc(OC4CN(C(=O)C56CC(COCCCCCOc7ccc8c(c7)C(=O)N(C7CCC(=O)NC7=O)C8=O)(C5)C6)C4)nc3)cc21` (centres unmarked) [Compound 175, 2-(2,6-dioxopiperidin-3-yl)-5-((5-((3-(3-((5-(5-methyl-5H-pyrido[4,3-b]indol-7-yl)pyridin-2-yl)oxy)azetidine-1-carbonyl)bicyclo[1.1.1]pentan-1-yl)methoxy)pentyl)oxy)isoindoline-1,3-dione]: the “Degradation activity (tau protein remaining; highest amount of degradation observed at any dosage)” value is listed as “C (>80% tau protein remaining after 72 hours of incubation with the test compound)”.

For `Cn1c2ccncc2c2ccc(-c3ccc(O[C@H]4C[C@H](OCCCC(F)(F)CN5CC6(C5)CN(c5ccc7c(c5)C(=O)N(C5CCC(=O)NC5=O)C7=O)C6)C4)nc3)cc21` (some centres unmarked) [Compound 150, 5-(6-(2,2-difluoro-5-((1r,3r)-3-((5-(5-methyl-5H-pyrido[4,3-b]indol-7-yl)pyridin-2-yl)oxy)cyclobutoxy)pentyl)-2,6-diazaspiro[3.3]heptan-2-yl)-2-(2,6-dioxopiperidin-3-yl)isoindoline-1,3-dione], the “Degradation activity* (highest amount of degradation observed at any dosage; tau protein remaining)” value is “B (≤80% and >50% tau protein remaining after 72 hours of incubation with the test compound)”.

As to `Cn1c2ccncc2c2ccc(-c3ccc(O[C@H]4C[C@H](Oc5ccc(C#CCOC6CN(c7ccc8c(c7)C(=O)N(C7CCC(=O)NC7=O)C8=O)C6)nc5)C4)nc3)cc21` (some centres unmarked) [Compound 111, 2-(2,6-dioxopiperidin-3-yl)-5-(3-((3-(5-((1r,3r)-3-((5-(5-methyl-5H-pyrido[4,3-b]indol-7-yl)pyridin-2-yl)oxy)cyclobutoxy)pyridin-2-yl)prop-2-yn-1-yl)oxy)azetidin-1-yl)isoindoline-1,3-dione], the “Degradation activity* (highest amount of degradation observed at any dosage; tau protein remaining)” value was “C (>80% tau protein remaining after 72 hours of incubation with the test compound)”.

Take `Cn1c2ccncc2c2ccc(-c3ccc(OCCCCCOCCCCCC4CCN(c5ccc6c(c5)C(=O)N(C5CCC(=O)NC5=O)C6=O)CC4)nc3)cc21` (centres unmarked) [Compound 75, 2-(2,6-dioxopiperidin-3-yl)-5-(4-(5-((5-((5-(5-methyl-5H-pyrido[4,3-b]indol-7-yl)pyridin-2-yl)oxy)pentyl)oxy)pentyl)piperidin-1-yl)isoindoline-1,3-dione]: the “Degradation activity* (highest amount of degradation observed at any dosage; tau protein remaining)” value is reported as “C (>80% tau protein remaining after 72 hours of incubation with the test compound)”.

Take `Cn1c2ccncc2c2ccc(-c3ccc(O[C@H]4C[C@H](OCCCCCOCCC5CN(c6ccc7c(c6)C(=O)N(C6CCC(=O)NC6=O)C7=O)C5)C4)nc3)cc21` (some centres unmarked) [Compound 181, 2-(2,6-dioxopiperidin-3-yl)-5-(3-(2-((5-((1r,3r)-3-((5-(5-methyl-5H-pyrido[4,3-b]indol-7-yl)pyridin-2-yl)oxy)cyclobutoxy)pentyl)oxy)ethyl)azetidin-1-yl)isoindoline-1,3-dione]: the “Degradation activity (tau protein remaining; highest amount of degradation observed at any dosage)” value is “B (≤80% and >50% tau protein remaining after 72 hours of incubation with the test compound)”.

Turning to `Cn1c2ccncc2c2c(F)c(F)c(-c3ccc(OCCOCCOCCOCCOCCOc4ccc5c(c4)C(=O)N(C4CCC(=O)NC4=O)C5=O)nc3)cc21` (centres unmarked) [Compound 112, 5-((14-((5-(8,9-difluoro-5-methyl-5H-pyrido[4,3-b]indol-7-yl)pyridin-2-yl)oxy)-3,6,9,12-tetraoxatetradecyl)oxy)-2-(2,6-dioxopiperidin-3-yl)isoindoline-1,3-dione], the “Degradation activity* (highest amount of degradation observed at any dosage; tau protein remaining)” value was “A (≤50% tau protein remaining after 72 hours of incubation with the test compound)”.

The same experiment, now with this note: SK-N-SH cells; 72 hours of incubation; tested at 1000 nM, 300 nM and 100 nM.
With `Cc1ncsc1-c1ccc(CNC(=O)[C@@H]2C[C@@H](O)CN2C(=O)[C@@H](NC(=O)COCCOCCOCCOCCOc2ccc(-c3ccc4c(c3)[nH]c3ccncc34)cn2)C(C)(C)C)cc1` [Compound 6, (2S,4R)-1-((S)-17-(5-(5H-pyrido[4,3-b]indol-7-yl)pyridin-2-yloxy)-2-tert-butyl-4-oxo-6,9,12,15-tetraoxa-3-azaheptadecane)-4-hydroxy-N-(4-(4-methylthiazol-5-yl)benzyl)pyrrolidine-2-carboxamide], the “Activity* (highest amount of degradation observed at any dosage, as tau protein remaining)” value is “C (>80% tau protein remaining after 72 hours of incubation with the test compound)”.

On to `CN(C)c1ccc(-c2ccc3cc(OCCCOCCOCCOCCOCCNc4cccc5c4C(=O)N(C4CCC(=O)NC4=O)C5=O)ccc3n2)cc1` (centres unmarked) [Compound 40, 4-(15-(2-(4-(dimethylamino)phenyl)quinolin-6-yloxy)-3,6,9,12-tetraoxapentadecylamino)-2-(2,6-dioxopiperidin-3-yl)isoindoline-1,3-dione], for which the “Activity* (highest amount of degradation observed at any dosage, as tau protein remaining)” value is reported as “C (>80% tau protein remaining after 72 hours of incubation with the test compound)”.

Regarding `O=C1CCC(N2Cc3c(NCCOCCOCCOCCOCCOc4ccc(-c5ccc6c(c5)[nH]c5ccncc56)cn4)cccc3C2=O)C(=O)N1` (centres unmarked) [Compound 49, 3-(4-((14-((5-(5H-pyrido[4,3-b]indol-7-yl)pyridin-2-yl)oxy)-3,6,9,12-tetraoxatetradecyl)amino)-1-oxoisoindolin-2-yl)piperidine-2,6-dione], the “Activity* (highest amount of degradation observed at any dosage, as tau protein remaining)” value is given as “A (≤50% tau protein remaining after 72 hours of incubation with the test compound)”.
